For assay [1], the target named is T1, G12D-mutant human KRAS (amino acid residues 1-188) (Homo sapiens, UniProt P01116, G12D).
T1 construct: G12D or G12C-mutant human KRAS (amino acid residues 1-188) with FLAG tag; made in house; host or cells: E. coli
Put plainly: KRAS Binding Disruption Assay (AlphaScreen; biotinylated KRpep-2d analogue or RAF1-RBD), G12D. The settings on record: KRAS G12D; geometric mean; read-out: KRAS GMean IC50 (uM) MUTATION: G12D. In outline: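 AlphaScreen readout: signal falls as compound displaces biotinylated KRpep-2d analogue or RAF1-RBD from mutant KRAS. Both partners at 5-20 nM, 1 h binding at 25° C, then 10 μg/mL Anti-Flag acceptor and streptavidin donor beads for 1 h. IC50 by nonlinear regression of % inhibition.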

Assay [2] addresses T2, G12V-mutant human KRAS (amino acid residues 1-188) (Homo sapiens, UniProt P01116, G12V).
T2 construct: G12V-mutant human KRAS (amino acid residues 1-188) with FLAG tag was purified from E. coli; made in house; host or cells: E. coli
Put plainly: KRAS Binding Competition Assay (AlphaScreen; biotinylated KRpep-2d analogue), G12V. The settings on record: geometric mean, read-out: KRAS GMean IC50 (uM) MUTATION: G12V. (In general: In Alpha technology, singlet oxygen from a donor bead excites a nearby acceptor bead.)

For the molecule `CN(C)c1ccc(Oc2nc(N3C[C@H]4CC[C@@H](C3)N4)c3cc(Cl)c(-c4c(O)cccc4F)c(F)c3n2)cc1` [P-0361, 2-(4-((1R,5S)-3,8-diazabicyclo[3.2.1]octan-3-yl)-6-chloro-2-(4-(dimethylamino)phenoxy)-8-fluoroquinazolin-7-yl)-3-fluorophenol], the IC50 in assay [1] and in assay [2] was 0.0001 to 10 µM each time.

For `CN(C)c1cccc(/C=C/c2nc(N3C[C@H]4CC[C@@H](C3)N4)c3cc(Cl)c(-c4c(O)cccc4F)c(F)c3n2)c1` [P-0362, 2-(4-((1R,5S)-3,8-diazabicyclo[3.2.1]octan-3-yl)-6-chloro-2-((E)-3-(dimethylamino)styryl)-8-fluoroquinazolin-7-yl)-3-fluorophenol], the half-inhibitory concentration (IC50) in assay [1] and in assay [2] was 0.0001 to 10 µM in each case.

As to `CN(C)c1cccc(CCc2nc(N3C[C@H]4CC[C@@H](C3)N4)c3cc(Cl)c(-c4c(O)cccc4F)c(F)c3n2)c1` [P-0363, 2-(4-((1R,5S)-3,8-diazabicyclo[3.2.1]octan-3-yl)-6-chloro-2-(3-(dimethylamino)phenethyl)-8-fluoroquinazolin-7-yl)-3-fluorophenol], the 50% inhibitory concentration (IC50) in assay [1] and in assay [2] was 0.0001 to 10 µM each time.

In the case of `CN(C)c1cccc(COc2nc(N3C[C@H]4CC[C@@H](C3)N4)c3cc(Cl)c(-c4c(O)cccc4F)c(F)c3n2)c1` [P-0364, 2-(4-((1R,5S)-3,8-diazabicyclo[3.2.1]octan-3-yl)-6-chloro-2-((3-(dimethylamino)benzyl)oxy)-8-fluoroquinazolin-7-yl)-3-fluorophenol], the IC50 in assay [1] and in assay [2] was 0.0001 to 10 µM throughout.

For the molecule `CN1CCC[C@H]1COc1nc(N2C[C@H]3CC[C@@H](C2)N3C(=O)CC#N)c2ccc(-c3cc(O)cc4ccccc34)cc2n1` [P-0368, 3-((1R,5S)-3-(7-(3-hydroxynaphthalen-1-yl)-2-(((S)-1-methylpyrrolidin-2-yl)methoxy)quinazolin-4-yl)-3,8-diazabicyclo[3.2.1]octan-8-yl)-3-oxopropanenitrile], the IC50 in assay [1] and in assay [2] was 0.0001 to 10 µM each time.

For the molecule `CN1C(=O)C(CC(=O)N2[C@@H]3CC[C@H]2CN(c2nc(OC[C@@H]4CCCN4C)nc4cc(-c5cc(O)cc6ccccc56)ccc24)C3)N(C)C1=O` (stereo partly drawn) [P-0369, 5-(2-((1R,5S)-3-(7-(3-hydroxynaphthalen-1-yl)-2-(((S)-1-methylpyrrolidin-2-yl)methoxy)quinazolin-4-yl)-3,8-diazabicyclo[3.2.1]octan-8-yl)-2-oxoethyl)-1,3-dimethylimidazolidine-2,4-dione], the IC50 in assay [1] fell in the range of 0.0001 to 10 µM; in assay [2], 10 to 100 µM.

On to `CN1CCC[C@H]1COc1nc(N2C[C@H]3CC[C@@H](C2)N3C(=O)CC2SC(N)=NC2=O)c2ccc(-c3cc(O)cc4ccccc34)cc2n1` (stereo partly drawn) [P-0370, 2-amino-5-(2-((1R,5S)-3-(7-(3-hydroxynaphthalen-1-yl)-2-(((S)-1-methylpyrrolidin-2-yl)methoxy)quinazolin-4-yl)-3,8-diazabicyclo[3.2.1]octan-8-yl)-2-oxoethyl)thiazol-4(5H)-one], for which the IC50 in assay [1] and in assay [2] was 0.0001 to 10 µM throughout.

`CN1CCC[C@H]1COc1nc(N2C[C@H]3CC[C@@H](C2)N3C(=O)CC2CCNC2=O)c2ccc(-c3cc(O)cc4ccccc34)cc2n1` (stereo partly drawn) [P-0371, 3-(2-((1R,5S)-3-(7-(3-hydroxynaphthalen-1-yl)-2-(((S)-1-methylpyrrolidin-2-yl)methoxy)quinazolin-4-yl)-3,8-diazabicyclo[3.2.1]octan-8-yl)-2-oxoethyl)pyrrolidin-2-one]: the half-inhibitory concentration (IC50) in assay [1] and in assay [2] was 10 to 100 µM each time.

On to `Fc1cc2c(N3C[C@H]4CC[C@@H](C3)N4)nc(OCC34CCCN3CCC4)nc2c(F)c1-c1c[nH]c2ccccc12` [P-0372, 4-((1R,5S)-3,8-diazabicyclo[3.2.1]octan-3-yl)-6,8-difluoro-7-(1H-indol-3-yl)-2-((tetrahydro-1H-pyrrolizin-7a(5H)-yl)methoxy)quinazoline], for which the IC50 in assay [1] fell in the range of 0.0001 to 10 µM; in assay [2], 10 to 100 µM.

As for `Fc1cc2c(N3C[C@H]4CC[C@@H](C3)N4)nc(OCC34CCCN3CCC4)nc2c(F)c1-c1c[nH]c2ccc(Cl)cc12` [P-0373, 4-((1R,5S)-3,8-diazabicyclo[3.2.1]octan-3-yl)-7-(5-chloro-1H-indol-3-yl)-6,8-difluoro-2-((tetrahydro-1H-pyrrolizin-7a(5H)-yl)methoxy)quinazoline], the IC50 in assay [1] lay in the range of 0.0001 to 10 µM; in assay [2], 10 to 100 µM.

Take `O=C(Cc1c[nH]c(=O)[nH]c1=O)N1[C@@H]2CC[C@H]1CN(c1nc(OCC34CCCN3CCC4)nc3c(F)c(-c4cc(O)cc5ccccc45)ccc13)C2` [P-0374, 5-(2-((1R,5S)-3-(8-fluoro-7-(3-hydroxynaphthalen-1-yl)-2-((tetrahydro-1H-pyrrolizin-7a(5H)-yl)methoxy)quinazolin-4-yl)-3,8-diazabicyclo[3.2.1]octan-8-yl)-2-oxoethyl)pyrimidine-2,4(1H,3H)-dione]: the half-inhibitory concentration (IC50) in assay [1] and in assay [2] was 0.0001 to 10 µM throughout.

Take `CN1CC[C@@H](NS(=O)(=O)N2[C@@H]3CC[C@H]2CN(c2nc(OC[C@@H]4CCCN4C)nc4c(F)c(-c5cc(O)cc6ccccc56)ccc24)C3)C1` [P-0376, (1R,5S)-3-(8-fluoro-7-(3-hydroxynaphthalen-1-yl)-2-(((S)-1-methylpyrrolidin-2-yl)methoxy)quinazolin-4-yl)-N-((R)-1-methylpyrrolidin-3-yl)-3,8-diazabicyclo[3.2.1]octane-8-sulfonamide]: the IC50 in assay [1] and in assay [2] was 0.0001 to 10 µM in each case.

For the molecule `CN1CCC[C@H]1COc1nc(N2C[C@H]3CC[C@@H](C2)N3S(=O)(=O)N2CCOC2=O)c2ccc(-c3cc(O)cc4ccccc34)c(F)c2n1` [P-0377, 3-(((1R,5S)-3-(8-fluoro-7-(3-hydroxynaphthalen-1-yl)-2-(((S)-1-methylpyrrolidin-2-yl)methoxy)quinazolin-4-yl)-3,8-diazabicyclo[3.2.1]octan-8-yl)sulfonyl)oxazolidin-2-one], the 50% inhibitory concentration (IC50) in assay [1] and in assay [2] was 0.0001 to 10 µM each time.

On to `CN1CCC[C@H]1COc1nc(N2C[C@H]3CC[C@@H](C2)N3)c2ccc(-c3nc(N)cc4ccccc34)c(F)c2n1` [P-0378, 1-(4-((1R,5S)-3,8-diazabicyclo[3.2.1]octan-3-yl)-8-fluoro-2-(((S)-1-methylpyrrolidin-2-yl)methoxy)quinazolin-7-yl)isoquinolin-3-amine], for which the IC50 in assay [1] lay within 0.0001 to 10 µM; in assay [2] it was 10 to 100 µM.

Take `CN1CCC[C@H]1COc1nc(N2C[C@H]3CC[C@@H](C2)N3)c2ccc(-c3nc(N)cc4cccnc34)c(F)c2n1` [P-0379, 8-(4-((1R,5S)-3,8-diazabicyclo[3.2.1]octan-3-yl)-8-fluoro-2-(((S)-1-methylpyrrolidin-2-yl)methoxy)quinazolin-7-yl)-1,7-naphthyridin-6-amine]: the IC50 was 10 to 100 µM in assay [1] and 100 to 1000 µM in assay [2].

`CN(C)CCCS(=O)(=O)N1[C@@H]2CC[C@H]1CN(c1nc(OC[C@@H]3CCCN3C)nc3c(F)c(-c4cc(O)cc5ccccc45)ccc13)C2` [P-0380, 4-(4-((1R,5S)-8-((3-(dimethylamino)propyl)sulfonyl)-3,8-diazabicyclo[3.2.1]octan-3-yl)-8-fluoro-2-(((S)-1-methylpyrrolidin-2-yl)methoxy)quinazolin-7-yl)naphthalen-2-ol]: the IC50 was 0.0001 to 10 µM in assay [1] and 10 to 100 µM in assay [2].

Take `Oc1cc(-c2ccc3c(N4C[C@H]5CC[C@@H](C4)N5)nc(N4CC5CCC(C4)N5)nc3c2F)c2ccccc2c1` [P-0381, 4-(4-((1R,5S)-3,8-diazabicyclo[3.2.1]octan-3-yl)-2-(3,8-diazabicyclo[3.2.1]octan-3-yl)-8-fluoroquinazolin-7-yl)naphthalen-2-ol]: the IC50 in assay [1] fell in the range of 0.0001 to 10 µM; in assay [2] it was 100 to 1000 µM.

As for `CN1CCC[C@H]1COc1nc(N2C[C@H]3CC[C@@H](C2)N3C(=O)CCn2ccnc2)c2ccc(-c3cc(O)cc4ccccc34)cc2n1` [P-0382, 1-((1R,5S)-3-(7-(3-hydroxynaphthalen-1-yl)-2-(((S)-1-methylpyrrolidin-2-yl)methoxy)quinazolin-4-yl)-3,8-diazabicyclo[3.2.1]octan-8-yl)-3-(1H-imidazol-1-yl)propan-1-one], the IC50 in assay [1] and in assay [2] was 0.0001 to 10 µM each time.

For `CN1CCC[C@H]1COc1nc(N2C[C@H]3CC[C@@H](C2)N3C(=O)CCC#N)c2ccc(-c3cc(O)cc4ccccc34)cc2n1` [P-0383, 4-((1R,5S)-3-(7-(3-hydroxynaphthalen-1-yl)-2-(((S)-1-methylpyrrolidin-2-yl)methoxy)quinazolin-4-yl)-3,8-diazabicyclo[3.2.1]octan-8-yl)-4-oxobutanenitrile], the IC50 in assay [1] lay within 10 to 100 µM; in assay [2] it was 0.0001 to 10 µM.

On to `CN1CCC[C@H]1COc1nc(N2C[C@H]3CC[C@@H](C2)N3)c2ccc(-c3cc(O)c(F)c4ccccc34)cc2n1` [P-0385, 4-(4-((1R,5S)-3,8-diazabicyclo[3.2.1]octan-3-yl)-2-(((S)-1-methylpyrrolidin-2-yl)methoxy)quinazolin-7-yl)-1-fluoronaphthalen-2-ol], for which the IC50 lay within 0.0001 to 10 µM in assay [1] and 10 to 100 µM in assay [2].

Consider `CN1C(=O)C(CC(=O)N2[C@@H]3CC[C@H]2CN(c2nc(OCC45CCCN4CCC5)nc4c(F)c(-c5cc(O)cc6ccccc56)ccc24)C3)N(C)C1=O` (stereo partly drawn) [P-0386, 5-(2-((1R,5S)-3-(8-fluoro-7-(3-hydroxynaphthalen-1-yl)-2-((tetrahydro-1H-pyrrolizin-7a(5H)-yl)methoxy)quinazolin-4-yl)-3,8-diazabicyclo[3.2.1]octan-8-yl)-2-oxoethyl)-1,3-dimethylimidazolidine-2,4-dione], for which the IC50 in assay [1] and in assay [2] was 0.0001 to 10 µM throughout.

For orientation: IC50 means the concentration that gives 50% inhibition.
